We go through 3 molecules from US8772353B2, “Method for enhancing the bioavalability of ospemifene” (Hormos Medical Ltd., priority 2004, dated 2014).

Data set [1] in a line: Study A: bioavailability of ospemifene after high caloric, high-fat breakfast versus fasted condition. As to conditions: for effect of food intake on bioavailability: 60 mg ospemifene tablet, single oral dose, high caloric (860 kcal), high-fat meal versus fasted, serum.
Protocol: Blood samples for pharmacokinetic assessments were drawn during 72 hours at each study period. A washout period between the two treatments was at least 2 weeks. […] The meal provided approximately 150, 170 and 540 kcal from protein, carbohydrate and fat, respectively.
For data set [2] the following is noted: cited from earlier work.
The conditions of data set [3]: 60 mg ospemifene tablet, single oral dose, low caloric (300 kcal), low-fat meal versus fasted, serum. On the procedure:
The composition of the light breakfast (approximately 300 kcal) was as follows: two slices of toast with margarine (5 g, fat content 60%), 6 slices (30 g) of cucumber, 240 ml skimmed (non-fat) milk and 100 ml orange juice. The test meal provided approximately 50, 180 and 70 kcal from protein, carbohydrate and fat, respectively.

The conditions of data set [4]: cited from earlier work. This is another data set of the same source.
For data set [5] the following is noted: Anttila M., 1997; cited from earlier work.

Like-named read-outs stand apart in the source and are kept apart here.

For the molecule `OCCOc1ccc(/C(=C(/CCCl)c2ccccc2)c2ccc(O)cc2)cc1` [4-hydroxy-ospemifene, 4-hydroxyospemifene], the “effect of food intake on bioavailability” value in data set [1] is on record as “substantial effect”.

On to `OCCOc1ccc(/C(=C(/CCCl)c2ccccc2)c2ccccc2)cc1` [ospemifene], for which the tolerability entry in data set [2] (in vivo) is “excellent tolerability”. The bioavailability entry in data set [2] (oral administration) is “rather low”. The “effect of food intake on bioavailability” value in data set [1] and in data set [3] was “enhanced” throughout. In addition, the “effect of food intake on ospemifene absorption (increase)” value in data set [1] (oral, food intake versus fasted) was 2-3 fold. Besides, in data set [4], the aqueous solubility entry was “low aqueous solubility”.

`CN(C)CCOc1ccc(/C(=C(/CCCl)c2ccccc2)c2ccccc2)cc1` [toremifene]: in data set [5], the “effect of food intake on absorption” value is on record as “retarded the absorption” and the “effect of food intake on bioavailability” value is “did not have any positive effect”. Further, in data set [4], the aqueous solubility result is given as “low aqueous solubility”.
